pIC50: −log10 of the molar value. Where two headings read alike, the source gives them in different places.
Legend:
[1] = system: A549 cells with Kras G12S mutation; test: Cell proliferation inhibition experiment, 3D spheroid, CellTiter-Glo (Test Example 1); assay type: cell-based, human; conditions: 5 days
Summary of the method: (§1)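 NCI-H358 (800 cells/well) and A549 (400 cells/well) grown overnight as 3D spheroids in 2% FBS medium, then exposed to compound dilution series (3.16-fold, 0.1% DMSO) for 5 days. CellTiter-Glo luminescence read; inhibition relative to DMSO and blank, IC50 by four-parameter fit.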

[2] = system: NCI-H358 cells with Kras G12C mutation; test: as above; assay type: cell-based, human; conditions: 5 days
Summary of the method: as §1

[3] = system: phosphorylated ERK in MIA PaCa2 cells with Kras G12C mutation; test: p-ERK HTRF assay for cells (Test Example 2); assay type: cell-based, human
Summary of the method: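 MIA PaCa2 cells (2.5E4/well, seeded overnight) treated 2 h with compound in a 3.16-fold series at 0.1% DMSO. Cells lysed 30 min; p-ERK read by HTRF after 4 h antibody incubation. Inhibition relative to DMSO and blank; IC50 by four-parameter fit.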

[4] = system: MIA PaCa-2 cells with Kras G12C mutation; test: Cell proliferation inhibition experiment, 3D spheroid, CellTiter-Glo (Test Example 3); assay type: cell-based, human; conditions: 5 days, read-out: MIA-PaCa2 IC50
Summary of the method: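 MIA PaCa-2 spheroids (200 cells/well) were formed overnight, then exposed for 5 days to compounds in 3.16-fold dilutions at 0.1% DMSO. Viability was read by CellTiter-Glo luminescence, and inhibition was normalised to DMSO control and medium blank. IC50 came from a four-parameter fit.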

[5] = biological target: KRas G12C (Homo sapiens (Human), UniProt P01116, G12C); test: Nucleotide exchange assay (NEA)-HTRF, SOS1 catalyzed displacement of GDP by GTP (Test Example 4); assay type: biochemical
Sequence of KRas G12C (P01116-2 other isoform, or with tags, fused parts or gaps G12C): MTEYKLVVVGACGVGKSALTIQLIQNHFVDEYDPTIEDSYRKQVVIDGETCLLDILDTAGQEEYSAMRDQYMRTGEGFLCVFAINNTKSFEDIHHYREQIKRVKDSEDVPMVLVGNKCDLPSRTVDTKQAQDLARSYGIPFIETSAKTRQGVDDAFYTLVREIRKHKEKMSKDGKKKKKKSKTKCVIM
Description: The effects of compounds on SOS1 catalyzed displacement of GDP by GTP on KRas proteins was examined by homogeneous time-resolved fluorescence (HTRF). 30 μM 6×his labeled KRas G12C recombinant protein and 80 μM fluorochrome DY647 labeled GDP were co-incubated in a labeling buffer (1 mM DTT, 7.5 mM EDTA, 25 mM Tris-HCl, 45 mM NaCl) at 20° C. away from light for 2 hours. Protein quantification was performed after purification on the NAP-5 column to determine the concentration of KRas G12C-GDP.
1000× stock solutions of compounds at a concentration gradient of 3.16 were prepared by using DMSO, and diluted 250 times by a reaction buffer (40 mM N-2-hydroxyethylpiperazine-N-2-ethane sulfonic acid (HEPES), 10 mM MgCl2, 1 mM DTT, 0.002% Triton X-100) into 4× stock solutions of compounds. KRas G12C-GDP/Tb working solution (40 nM KRas G12C-GDP, 1×anti-his Tb) and SOS1/GTP working solution (0.2 μM SOS1, 200 μM GTP) were prepared by using the reaction buffer.
5 μl of 4×stock solution of a compound and 10 μl of KRas G12C-GDP/T working solution were added to each well of 96-well plate with white unclear bottom, and 5 μl of reaction buffer was added to the well of control group in stead of the 4×stock solution of a compound. After incubation at 20° C. away from light for 15 minutes, 5 μl of SOS1/GTP working solution was added and incubated at 20° C. away from light for 2 hours, and then a value of fluorescence intensity was read (excitation wavelength: 320 nm, and emission wavelengths: 615 nm and 665 nm). Besides, group TO was established with 10 μl of the reaction buffer and 10 μl of the KRas G12C-GDP/Tb working solution, and the value of fluorescence intensity was directly read. A relative light unit (RLU) was calculated by the following equation: RLU=(665 nm signal/615 nm signal)×10^4; and the inhibition rate (IR) of the compound was calculated by the following equation: IR (%)=(RLUcompound−RLUcontrol)/(RLUT0−RLUcontrol)×100%. The value of IC50 was calculated by fitting a gradiently diluted concentration of the compound and the corresponding cell proliferation inhibition rate using a four-parameter method.

[6] = MIA PaCa2 cells, 2 hours with compound, read-out: p-ERK IC50
[7] = Homo sapiens, MIA PaCa-2, 2 h, MIA PaCa2 cells, 2 hours with compound, read-out: p-ERK IC50
[8] = Homo sapiens, MIA PaCa-2, 120 h
[9] = Homo sapiens, MIA PaCa-2, 2 h, read-out: p-ERK IC50, MIA PaCa2 cells, 2 hours with compound

Compound | pIC50 [1] | pIC50 [2] | pIC50 [3, 6] | pIC50 [4] | pIC50 [5] | pIC50 [3, 7] | pIC50 [4, 8] | pIC50 ([1]; Homo sapiens, A549, 120 h) | pIC50 ([2]; Homo sapiens, NCI-H358, 120 h) | pIC50 [3, 9] | pIC50 ([4]; Homo sapiens, 120 h)
C=CC(=O)N1C[C@@H]2C(=O)N(C)c3c(c4cc(F)c(-c5c(O)cccc5F)nc4n(-c4c(C#N)cccc4C(C)C)c3=O)N2C[C@H]1C (atropisomer, axis not shown) [Compound Z38-1, 2-((2R,4aR)-3-acryloyl-11-fluoro-10-(2-fluoro-6-hydroxyphenyl)-2,6-dimethyl-5,7-dioxo-2,3,4,4a,5,6-hexahydro-1H-pyrazino[1′,2′:4,5]pyrazino[2,3-c][1,8]naphthyridin-8(7H)-yl)-3-isopropylbenzonitrile] | < 4.52 | 8.15 | 6.67 | 7.57 | 7.28 |  |  |  |  |  | 
C=CC(=O)N1CCN2c3c(c(=O)n(-c4c(C)ccnc4C(C)C)c4nc(-c5c(O)cccc5F)c(F)cc34)OC[C@H]2C1 (single isomer, unassigned) [Compound Z1-1] | 4.97 | 7.51 |  |  | 6.82 | 6.29 | 7.02 |  |  |  | 
C=CC(=O)N1C[C@@H]2C(=O)N(C)c3c(c4cc(F)c(-c5c(O)cccc5F)nc4n(-c4c(C)ccnc4C(C)C)c3=O)N2C[C@H]1C (single isomer, unassigned) [Compound Z10-1] | < 5.00 | 7.15 | 6.34 |  | 6.15 |  |  |  |  |  | 
C=CC(=O)N1CCN2c3c(c(=O)n(-c4c(C)ncnc4C(C)C)c4nc(-c5c(O)cccc5F)c(F)cc34)N(C)C(=O)[C@H]2C1 (single isomer, unassigned) [Compound Z21-1] | < 4.52 | 7.57 | 6.37 | 7.34 | 6.76 |  |  |  |  |  | 
C=CC(=O)N1CCN2c3c(c(=O)n(-c4c(C)ccnc4C(C)C)c4nc(-c5c(O)cccc5F)c(Cl)cc34)NC(=O)[C@H]2C1 (single isomer, unassigned) [Compound Z24-1] | < 4.52 | 7.55 | 6.27 |  | 6.54 |  |  |  |  |  | 
C=CC(=O)N1CCN2c3c(c(=O)n(-c4c(C)ccnc4C(C)C)c4nc(-c5c(O)cccc5F)c(Cl)cc34)NC(=O)[C@H]2C1 (single isomer, unassigned) [Compound Z24-2] | 4.95 | 8.52 | 7.21 |  | 7.42 |  | 8.40 |  |  |  | 
C=CC(=O)N1C[C@@H]2C(=O)N(C)c3c(c4cc(Cl)c(-c5c(O)cccc5F)nc4n(-c4c(C)ccnc4C(C)C)c3=O)N2C[C@H]1C (single isomer, unassigned) [Compound Z27-1] |  | 7.92 | 6.80 |  | 6.70 |  |  | 4.90 |  |  | 
C=CC(=O)N1C[C@@H]2C(=O)N(C)c3c(c4cc(F)c(-c5c(O)cccc5F)nc4n(-c4c(C)cnn4C(C)C)c3=O)N2C[C@H]1C (single isomer, unassigned) [Compound Z33-1] | < 4.52 | 7.13 |  |  | 6.29 |  | 7.04 |  |  |  | 
C=CC(=O)N1C[C@@H]2C(=O)N(C)c3c(c4cc(F)c(-c5c(O)cccc5F)nc4n(-c4c(C)cnn4C(C)C)c3=O)N2C[C@H]1C (single isomer, unassigned) [Compound Z33-2] |  | 7.47 |  | 7.32 | 6.79 | 6.62 |  | < 4.52 |  |  | 
C=CC(=O)N1C[C@@H]2C(=O)N(C)c3c(c4cc(Cl)c(-c5c(O)cccc5F)c(F)c4n(-c4c(C(C)C)ncnc4C(C)C)c3=O)N2C[C@H]1C (single isomer, unassigned) [Compound Z50-1] | < 4.52 | 9.52 | 8.22 |  | 8.10 |  | 9.00 |  |  |  | 
C=CC(=O)N1C[C@@H]2C(=O)N(C)c3c(c4cc(Cl)c(-c5c(O)cccc5F)c(F)c4n(-c4c(C(C)C)ncnc4C(C)C)c3=O)N2C[C@H]1C (single isomer, unassigned) [Compound Z50-2] | 5.41 | 6.49 | 6.50 |  | 5.84 |  |  |  |  |  | 
C=CC(=O)N1C[C@@H]2C(=O)N(C)c3c(c4cc(F)c(-c5c(O)cccc5F)nc4n(-c4c(C)ccnc4C(C)C)c3=O)N2C[C@H]1C [Compound Z10, (2R,4aR)-3-acryloyl-11-fluoro-10-(2-fluoro-6-hydroxyphenyl)-8-(2-isopropyl-4-methylpyridin-3-yl)-2,6-dimethyl-2,3,4,4a,6-hexahydro-1H-pyrazino[1′,2′:4,5]pyrazino[2,3-c][1,8,8]naphthyridin-5-dione] |  |  |  |  | 7.17 | 7.12 |  | 4.92 | 8.10 |  | 
C=CC(=O)N1CCN2c3c(c(=O)n(-c4c(C)ncnc4C(C)C)c4nc(-c5c(O)cccc5F)c(F)cc34)N(C)C(=O)[C@H]2C1 [Compound Z21, (4aR)-3-acryloyl-11-fluoro-10-(2-fluoro-6-hydroxyphenyl)-8-(4-isopropyl-6-methylpyrimidin-5-yl)-6-methyl-2,3,4,4a,6,8-hexahydro-1H-pyrazino[1′,2′:4,5]pyrazino[2,3-c][1,8]naphthyridin-5,7-dione] |  |  |  |  | 6.41 | 6.57 | 7.33 | < 4.52 | 7.64 |  | 
C=CC(=O)N1CCN2c3c(c(=O)n(-c4c(C)ccnc4C(C)C)c4nc(-c5c(O)cccc5F)c(Cl)cc34)NC(=O)[C@H]2C1 [Compound Z24, (4aR)-3-acryloyl-11-chloro-10-(2-fluoro-6-hydroxyphenyl)-8-(2-isopropyl-4-methylpyridin-3-yl)-2,3,4,4a,6,8-hexahydro-1H-pyrazino[1′,2′:4,5]pyrazino[2,3-c][1,8]naphthyridin-5,7-dione] |  |  |  |  | 7.24 | 6.95 | 8.05 | 4.55 | 8.52 |  | 
C=CC(=O)N1CCN2c3c(c(=O)n(-c4c(C)ccnc4C(C)C)c4nc(-c5c(O)cccc5F)c(Cl)cc34)N(C)C(=O)[C@H]2C1 [Compound Z25, (4aR)-3-acryloyl-11-chloro-10-(2-fluoro-6-hydroxyphenyl)-8-(2-isopropyl-4-methylpyridin-3-yl)-6-methyl-2,3,4,4a,6,8-hexahydro-1H-pyrazino[1′,2′:4,5]pyrazino[2,3-c][1,8]naphthyridin-5,7-dione] |  |  |  |  | 7.22 |  |  | 4.55 | 8.40 | 7.29 | 8.10
[2H]C([2H])([2H])N1C(=O)[C@H]2CN(C(=O)C=C)CCN2c2c1c(=O)n(-c1c(C)ccnc1C(C)C)c1nc(-c3c(O)cccc3F)c(Cl)cc21 [Compound Z26, (4aR)-3-acryloyl-11-chloro-10-(2-fluoro-6-hydroxyphenyl)-8-(2-isopropyl-4-methylpyridin-3-yl)-6-(methyl-d3)-2,3,4,4a,6,8-hexahydro-1H-pyrazino[1′,2′:4,5]pyrazino[2,3-c][1,8]naphthyridin-5,7-dione] | 4.89 | 8.70 |  |  | 7.47 |  |  |  |  | 7.41 | 8.30
C=CC(=O)N1C[C@@H]2C(=O)N(C)c3c(c4cc(Cl)c(-c5c(O)cccc5F)nc4n(-c4c(C)ccnc4C(C)C)c3=O)N2C[C@H]1C [Compound Z27, (2R,4aR)-3-acryloyl-11-chloro-10-(2-fluoro-6-hydroxyphenyl)-8-(2-isopropyl-4-methylpyridin-3-yl)-2,6-dimethyl-2,3,4,4a,6,8-hexahydro-1H-pyrazino[1′,2′:4,5]pyrazino[2,3-c][1,8]naphthyridin-5,7-dione] |  |  |  |  | 7.57 | 7.54 | 8.40 | 4.99 | 8.70 |  | 

— patent US12054497B2, “Substituted heterocyclic fused cyclic compound, preparation method therefor and pharmaceutical use thereof” (GENFLEET THERAPEUTICS (SHANGHAI) INC., priority 2019, dated 2024)
